Measurements: US9663510B2, “Substituted triazolopyridines and their use as TTK inhibitors” (Bayer Intellectual Property GmbH, priority 2011, dated 2017)
Read-outs that look alike come from different tables or passages of the source.

How the values were obtained:
[1] = system: HeLa human cervical tumor cells; test: HeLa cell proliferation assay (crystal violet); format: cell-based; conditions: 96 h, 4 days incubation, read-out: Inhibition of cell proliferation, cell Line: HeLa IC50
[2] = Metabolic stability in vitro, human liver microsomes (calculation of Fmax); format: in vitro ADME; conditions: maximal oral bioavailability calculated from microsomal half-life, 1 μM
Description: (§1) The metabolic stability of test compounds in vitro was determined by incubating them at 1 μM with a suspension liver microsomes in 100 mM phosphate buffer, pH7.4 (NaH2PO4×H2O+Na2HPO4×2H2O) at a protein concentration of 0.5 mg/mL and at 37° C. The reaction was activated by adding a co-factor mix containing 1.2 mg NADP, 3 IU glucose-6-phosphate dehydrogenase, 14.6 mg glucose-6-phosphate and 4.9 mg MgCl2 in phosphate buffer, pH 7.4. Organic solvent in the incubations was limited to <0.2% dimethylsulfoxide (DMSO) and <1% methanol. During incubation, the microsomal suspensions were continuously shaken and aliquots were taken at 2, 8, 16, 30, 45 and 60 min, to which equal volumes of cold methanol were immediately added. Samples were frozen at −20° C. over night, subsequently centrifuged for 15 minutes at 3000 rpm and the supernatant was analyzed with an Agilent 1200 HPLC-system with LCMS/MS detection.
(§2) The half-life of a test compound was determined from the concentration-time plot. From the half-life the intrinsic clearances were calculated. Together with the additional parameters liver blood flow, specific liver weight and microsomal protein content the hepatic in vivo blood clearance (CL) and the maximal oral bioavailability (Fmax) were calculated for the different species. The following parameter values were used: Liver blood flow—1.3 L/h/kg (human), 2.1 L/h/kg (dog), 4.2 L/h/kg (rat); specific liver weight—21 g/kg (human), 39 g/kg (dog), 32 g/kg (rat); microsomal protein content—40 mg/g.
(§3) With the described assay only phase-I metabolism of microsomes is reflected, e.g. typically oxidoreductive reactions by cytochrome P450 enzymes and flavin mono-oxygenases (FMO) and hydrolytic reactions by esterases (esters and amides).

[3] = biological target: human kinase Mps-1 (Homo sapiens (Human), UniProt P33981); test: Mps-1 kinase assay (TR-FRET); format: biochemical
[4] = Metabolic stability in vitro, dog liver microsomes (calculation of Fmax); format: in vitro ADME; conditions: maximal oral bioavailability calculated from microsomal half-life, 1 μM
Description: as §1, §2, §3

[5] = Metabolic stability in vitro, rat liver microsomes (calculation of Fmax); format: in vitro ADME; conditions: maximal oral bioavailability calculated from microsomal half-life, 1 μM
Description: as §1, §2, §3

[6] = read-out: Mps-1 Inhibition, IC50 (Assay with 10 μM ATP), 10 μM ATP
[7] = read-out: Mps-1 Inhibition, IC50 (Assay with 2 mM ATP), 2 mM ATP

human kinase Mps-1, sequence (P33981 whole entry): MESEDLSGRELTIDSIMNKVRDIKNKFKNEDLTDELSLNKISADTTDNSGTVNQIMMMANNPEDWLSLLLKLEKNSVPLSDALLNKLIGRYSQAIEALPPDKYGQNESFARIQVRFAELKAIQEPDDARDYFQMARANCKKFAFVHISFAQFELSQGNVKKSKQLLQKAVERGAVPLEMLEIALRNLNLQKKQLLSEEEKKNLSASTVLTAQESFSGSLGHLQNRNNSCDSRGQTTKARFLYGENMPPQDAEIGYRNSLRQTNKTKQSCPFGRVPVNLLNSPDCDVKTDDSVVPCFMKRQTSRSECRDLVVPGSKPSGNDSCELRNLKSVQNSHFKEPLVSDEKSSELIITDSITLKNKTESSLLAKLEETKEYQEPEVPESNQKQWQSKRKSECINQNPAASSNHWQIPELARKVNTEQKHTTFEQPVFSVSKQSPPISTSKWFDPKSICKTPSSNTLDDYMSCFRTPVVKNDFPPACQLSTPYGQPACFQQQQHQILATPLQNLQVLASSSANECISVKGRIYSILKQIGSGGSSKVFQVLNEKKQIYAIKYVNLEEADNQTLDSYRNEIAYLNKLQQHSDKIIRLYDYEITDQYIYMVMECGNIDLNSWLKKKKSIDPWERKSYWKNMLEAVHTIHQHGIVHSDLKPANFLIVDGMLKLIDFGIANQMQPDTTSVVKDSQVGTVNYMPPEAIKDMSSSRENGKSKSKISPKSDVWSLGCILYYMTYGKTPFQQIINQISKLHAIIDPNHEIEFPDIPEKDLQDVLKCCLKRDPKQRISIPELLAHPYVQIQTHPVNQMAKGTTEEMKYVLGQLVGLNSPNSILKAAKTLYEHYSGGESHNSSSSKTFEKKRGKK

Row | SMILES | IC50 [1] | Human liver microsomes; Fmax [%] [2] | IC50 ([3]; 2 mM ATP) | IC50 [3, 6] | Dog liver microsomes; Fmax [%] [4] | Rat liver microsomes; Fmax [%] [5] | IC50 [3, 7]
1 | COc1cc(C(=O)NCC(F)(F)F)ccc1Nc1nc2ccc(-c3ccc(NC(=O)[C@H](C)c4ccc(F)cc4)cc3)cn2n1 [Example 01.04, 4-{[6-(4-{[(2R)-2-(4-fluorophenyl)propanoyl]amino}phenyl)[1,2,4]-triazolo[1,5-a]pyridin-2-yl]amino}-3-methoxy-N-(2,2,2-trifluoro-ethyl)benzamide] | < 400 nM | >95% | 2 nM | < 1 nM | 94% | 87% | 
2 | C[C@@H](C(=O)Nc1ccc(-c2ccc3nc(Nc4ccc(S(C)(=O)=O)cc4OCC(F)(F)F)nn3c2)cc1)c1ccc(F)cc1 [Example 01.03, (2R)-2-(4-fluorophenyl)-N-[4-(2-{[4-(methylsulfonyl)-2-(2,2,2-trifluoro-ethoxy)phenyl]amino}[1,2,4]triazolo[1,5-a]pyridin-6-yl)phenyl]-propanamide] |  | >95% |  | < 1 nM | 55% | 93% | < 1 nM
3 | CCOc1cc(S(C)(=O)=O)ccc1Nc1nc2ccc(-c3ccc(NC(=O)[C@H](C)c4ccc(F)cc4)cc3)cn2n1 [Example01.02, (2R)—N-[4-(2-{[2-ethoxy-4-(methylsulfonyl)phenyl]amino}[1,2,4]-triazolo[1,5-a]pyridin-6-yl)phenyl]-2-(4-fluorophenyl)propanamide] | < 600 nM | 68% |  | < 1 nM | 73% | 86% | < 1 nM
4 | COc1cc(C(=O)N2CCC2)ccc1Nc1nc2ccc(-c3ccc(NC(=O)[C@H](C)c4ccc(F)cc4)cc3)cn2n1 [Example01.08, (2R)—N-[4-(2-{[4-(azetidin-1-ylcarbonyl)-2-methoxyphenyl]amino}[1,2,4]-triazolo[1,5-a]pyridin-6-yl)phenyl]-2-(4-fluorophenyl)propanamide] |  | 62% |  | < 1 nM | 75% | 74% | < 1 nM
5 | COc1cc(S(C)(=O)=O)ccc1Nc1nc2ccc(-c3ccc(NC(=O)[C@H](N)c4ccc(F)cc4)cc3)cn2n1 [Example01.11, (2R)-2-amino-2-(4-fluorophenyl)-N-[4-(2-{[2-methoxy-4-(methylsulfonyl)-phenyl]amino}[1,2,4]triazolo[1,5-a]pyridin-6-yl)phenyl]ethanamide] | < 600 nM | 76% | 9 nM | < 1 nM | 75% | 92% | 
6 | CS(=O)(=O)c1ccc(Nc2nc3ccc(-c4ccc(NC(=O)C(CO)c5ccc(F)cc5)cc4)cn3n2)c(OCC(F)(F)F)c1 (single isomer, unassigned) [Example01.10, (−)-2-(4-fluorophenyl)-3-hydroxy-N-[4-(2-{[4-(methylsulfonyl)-2-(2,2,2-tri-fluoroethoxy)phenyl]amino}[1,2,4]triazolo[1,5-a]pyridin-6-yl)phenyl]-propanamide] | < 200 nM | >95% | 1.1 nM | < 1 nM | >95% | >95% | 
7 | C[C@@H](C(=O)Nc1ccc(-c2ccc3nc(Nc4ccc(C(N)=O)cc4OCC(F)(F)F)nn3c2)cc1)c1ccc(F)cc1 [Example01.06, 4-{[6-(4-{[(2R)-2-(4-fluorophenyl)propanoyl]amino}phenyl)[1,2,4]triazolo-[1,5-a]pyridin-2-yl]amino}-3-(2,2,2-trifluoroethoxyl)benzamide] | < 100 nM | >95% | 1.5 nM | < 1 nM | 81% | 94% | 
8 | COc1cc(S(C)(=O)=O)ccc1Nc1nc2ccc(-c3ccc(NC(=O)[C@H](C)c4ccc(F)cc4)cc3)cn2n1 [Example 01.01, (2R)-2-(4-fluorophenyl)-N-[4-(2-{[2-methoxy-4-(methylsulfonyl)phenyl]-amino}[1,2,4]triazolo[1,5-a]pyridin-6-yl)phenyl]propanamide] | < 400 nM | 92% |  |  | 64% | 92% | 
9 | COc1cc(C(N)=O)ccc1Nc1nc2ccc(-c3ccc(NC(=O)[C@H](C)c4ccc(F)cc4)cc3)cn2n1 [Example01.05] | < 100 nM | >95% | 1.2 nM | < 1 nM | 89% | >95% | 
10 | COc1cc(C(=O)N2CC(F)C2)ccc1Nc1nc2ccc(-c3ccc(NC(=O)[C@H](C)c4ccc(F)cc4)cc3)cn2n1 [Example 01.07, (2R)-N-{4-[2-({4-[(3-fluoroazetidin-1-yl)carbonyl]-2-methoxyphenyl}amino)-[1,2,4]triazolo[1,5-a]pyridin-6-yl]phenyl}-2-(4-fluorophenyl)propanamide] |  | >95% |  |  | 86% | 83% | 
11 | COc1cc(N2CCOC2=O)ccc1Nc1nc2ccc(-c3ccc(NC(=O)[C@H](C)c4ccc(F)cc4)cc3)cn2n1 [Example 01.09, (2R)-2-(4-fluorophenyl)-N-[4-(2-{[2-methoxy-4-(2-oxo-1,3-oxazolidin-3-yl)phenyl]amino}[1,2,4]triazolo[1,5-a]pyridin-6-yl)phenyl]propanamide] |  | 49% |  |  | 48% | 58% | 
